Where “and” joins values, the source holds several entries; their conditions need not be identical. Identical values can stand only once.
Test: xn = mol fraction of the nth substance listed

CC1COC(=O)O1 (stereo unspecified) + CS(C)=O
308.15 K, 101 kPa
Conditions | viscosity [mPa·s]
x2 = 0.0506 | 2.025
x2 = 0.1139 | 1.973
x2 = 0.2014 | 1.907
x2 = 0.2976 | 1.842
x2 = 0.382 | 1.794
x2 = 0.4759 | 1.746
x2 = 0.5376 | 1.719
x2 = 0.6343 | 1.684
x2 = 0.7176 | 1.659
x2 = 0.7898 | 1.645
x2 = 0.8643 | 1.64
x2 = 0.9376 | 1.639

CC1COC(=O)O1 (stereo unspecified) + c1ccccc1
viscosity [mPa·s]
Conditions | 298.15 K | 303.15 K | 308.15 K
101 kPa, x1 = 0.0191 | 0.6193 | – | 0.5377
101 kPa, x1 = 0.0416 | 0.6341 | – | 0.5545
101 kPa, x1 = 0.0585 | 0.6458 | – | 0.5677
101 kPa, x1 = 0.0771 | 0.6595 | – | 0.5824
101 kPa, x1 = 0.103 | 0.6758 | – | 0.6037
101 kPa, x1 = 0.1982 | 0.7426 | – | 0.6908
101 kPa, x1 = 0.2949 | 0.8478 | – | 0.7937
101 kPa, x1 = 0.3972 | 0.9876 | – | 0.9193
101 kPa, x1 = 0.4938 | 1.145 | – | 1.055
101 kPa, x1 = 0.5987 | 1.346 | – | 1.221
101 kPa, x1 = 0.7002 | 1.571 | – | 1.402
101 kPa, x1 = 0.7907 | 1.799 | – | 1.582
101 kPa, x1 = 0.9024 | 2.119 | – | 1.826
101.3 kPa, x1 = 0.1049 | – | 0.616 | –
101.3 kPa, x1 = 0.2087 | – | 0.7019 | –
101.3 kPa, x1 = 0.3114 | – | 0.798 | –
101.3 kPa, x1 = 0.4131 | – | 0.9074 | –
101.3 kPa, x1 = 0.5136 | – | 1.035 | –
101.3 kPa, x1 = 0.6131 | – | 1.194 | –
101.3 kPa, x1 = 0.7109 | – | 1.379 | –
101.3 kPa, x1 = 0.8083 | – | 1.599 | –
101.3 kPa, x1 = 0.9046 | – | 1.853 | –

Cc1ccc(S(=O)(=O)O)cc1 + c1c[nH]cn1
viscosity, 101.33 kPa
Conditions | 303.11 K | 303.14 K | 313.12 K | 313.14 K | 323.13 K | 323.14 K
x2 = 0.78 | 43.59 mPa·s | – | 27.71 mPa·s | – | 18.65 mPa·s | –
x2 = 0.8 | 54.18 mPa·s | 41.78 mPa·s | 34.32 mPa·s | 26.53 mPa·s | – | 20.96 mPa·s and 17.62 mPa·s

CC[N+](CC)(CC)CC.Cc1ccc(S(=O)(=O)[O-])cc1 + OCCO
101 kPa, x1 = 0.2
Conditions | viscosity [mPa·s]
298.15 K | 51.2
303.15 K | 40.8
308.15 K | 32.8
313.15 K | 24.4
318.15 K | 22.2
323.15 K | 17.4

— the CheMixHub viscosity set
